One compound from EPA's ToxValDB 9.5 (doi:10.2903/j.efsa.2008.140r) can be followed below.

In brackets after ≈: the same amount, converted by molar mass.

For one series, the system named is Canidae. The following applies: chronic; duration: 1 years; oral; Dog Other; clinical signs.
A further series concerns Colinus virginianus. The conditions noted are these: acute; oral; mortality.
For a further series, the system named is Daphnia magna. The conditions noted are these: chronic/long-term; duration: 21 days; reproduction.
The subject of the next series is Rattus norvegicus. The conditions noted are these: for NOAEL: chronic.
A further series deals with Typhlodromus pyri. The following applies: not reported; other.

Take `CCN(CC)C(=O)C(C)Oc1cccc2ccccc12` (stereo unspecified) [Napropamide]: the NOAEL with Canidae came out at 50 mg/kg-day; in the series with Rattus norvegicus (duration: 2 years, oral, body weight), 30 mg/kg-day; in the series on Rattus norvegicus (mortality), 30 mg/kg-day. Besides, the LD50 in the series on Colinus virginianus was more than 2250 mg/kg-day; with Rattus norvegicus (acute, mortality) it was 4680 mg/kg-day. The NOEC in the series with Daphnia magna was 4.3 mg/L; in the series with Oncorhynchus mykiss (chronic/long-term, duration: 28 days, growth), 1.1 mg/L; with Tagia sp. (chronic/long-term, reproduction), 60 mg/kg. The LC50 in the series on Oncorhynchus mykiss (acute, duration: 96 hours, mortality) was determined as 6.6 mg/L (≈ 24.3 µM); with Tagia sp. (acute, duration: 14 days, mortality), 564 mg/kg. This compound gave an LEL with Typhlodromus pyri of 4500 g/ha.

A word on the NOAEL: it is the highest dose or exposure tested at which no adverse effect was seen.
